Assay results: US20110129548A1, “Immunopotentiating Compositions Comprising Beta-1, 3/1, 6-D-Glucan and Uses Thereof” (BioAgra, LLC, priority 2006, published 2011)

Experiments:
[1] = tested on: blood cells (WBC, RBC, MON, PMN); assay: Effect of Vitamin D plus beta-1,3/1,6-D-glucan on blood cells (differential cell count); assay type: in vivo; details: rabbits, capsules for 9 weeks
Protocol: To determine the effect of Vitamin D plus beta-1,3/1,6-D-glucan (AGRASTIM®) on the immunocompetence of an animal, rabbits (10 per group) were given capsules of equal weight comprising 10 mg of beta-1,3/1,6-D-glucan (AGRASTIM®), 10 mg of beta-1,3/1,6-D-glucan (AGRASTIM®) plus 50 IU of Vitamin D, or 50 IU Vitamin D for 9 weeks. At the end of 9 weeks the number of white blood cells (WBCs), red blood cells (RBCs), mononuclear cells (MONs), and polymorphonuclear cells (PMNs) were determined by differential cell count.

[2] = tested on: macrophage cell line RAW264 cells; assay: Hydrogen peroxide production by RAW264 macrophages; assay type: cell-based, murine; details: 1 h; for Fluorescence: control 229.00 ± 4.54
Protocol: To determine hydrogen peroxide production, macrophage cell line RAW264 cells were plated into 96 well tissue culture plates and cultured until confluent in phenol red-free alpha-minimum essential medium, supplemented with 10% fetal bovine serum. Once confluence was reached, the media was removed, the cells were washed, and substrate and test substances were added. To insure cell number uniformity at confluence, cell numbers were determined in 8 wells; if the number of cells differed by more than 10% the plate was not used. Following an incubation period of exactly 1h the reaction was stopped and resulting fluorescence measured with an ELISA-reader at λmax, excitation=312 nm, λmax, emission=420 nm. Zymosan, the residue from a hot alcoholic extraction of yeast, and curdlan, a linear beta-1,3-D-glucan, were used as positive controls.

[3] = percent with the control set to 100

Substance	increase of PMNs [1]	increase of WBCs above control [1]	increase of the number of RBCs [1]	MON [1, 3]	PMN [1, 3]	RBC [1, 3]	WBC [1, 3]	H2O2-Release ([2]; dose 10 μg/assay)	Fluorescence ([2]; dose 10 μg/assay)	H2O2-Release ([2]; dose 50 μg/assay)	Fluorescence ([2]; dose 50 μg/assay)
Vitamin D	29%	no effect	neither beta-1,3/1,6-D-glucan alone nor Vitamin D had significant effects	83%	129%	84%	100%	–	–	–	–
CURDLAN	–	–	–	–	–	–	–	0.76 nmol	254.00 ± 1.02 arbitrary units	1.06 nmol	345.00 ± 6.48 arbitrary units
